From ChEMBL document CHEMBL1909046, “DrugMatrix in vitro pharmacology data”
Where a SMILES comes first, the peptide text is derived from it. Bridges are numbered along the chain shown (N, C = ends). [ ]: non-standard residue; d: D form. The star is where a group is joined. Threoninol(2S,3R) = C[C@@H](O)[C@H](CO)N*

Assays:
[1] = target: T1, Alpha-2C adrenergic receptor (Homo sapiens, UniProt P18825); assay: DRUGMATRIX: Adrenergic Alpha-2C radioligand binding (ligand: [3H] MK-912); type: cell membranes, Sf9, Membrane; details: for Ki: read-out: Ki
T1 sequence (P18825 whole entry): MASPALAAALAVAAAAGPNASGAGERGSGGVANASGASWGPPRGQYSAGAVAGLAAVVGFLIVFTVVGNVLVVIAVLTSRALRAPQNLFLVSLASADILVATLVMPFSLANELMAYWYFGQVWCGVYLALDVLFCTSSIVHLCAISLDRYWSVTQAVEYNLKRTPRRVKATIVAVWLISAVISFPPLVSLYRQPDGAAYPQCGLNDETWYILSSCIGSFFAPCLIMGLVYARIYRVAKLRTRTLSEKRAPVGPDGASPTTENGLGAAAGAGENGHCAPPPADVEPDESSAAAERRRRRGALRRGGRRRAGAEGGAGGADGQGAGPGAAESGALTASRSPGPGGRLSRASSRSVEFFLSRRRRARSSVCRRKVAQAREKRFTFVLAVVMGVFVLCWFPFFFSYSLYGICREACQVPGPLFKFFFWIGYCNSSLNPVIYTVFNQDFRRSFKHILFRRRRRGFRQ

Endothelin-1 receptor = target: T2, Endothelin-1 receptor (Homo sapiens, UniProt P25101); type: cell membranes, Membrane; details: cho-k1; also: in other assays of this panel Not Active means under 50% inhibition at 10 µM
T2 sequence (P25101 whole entry): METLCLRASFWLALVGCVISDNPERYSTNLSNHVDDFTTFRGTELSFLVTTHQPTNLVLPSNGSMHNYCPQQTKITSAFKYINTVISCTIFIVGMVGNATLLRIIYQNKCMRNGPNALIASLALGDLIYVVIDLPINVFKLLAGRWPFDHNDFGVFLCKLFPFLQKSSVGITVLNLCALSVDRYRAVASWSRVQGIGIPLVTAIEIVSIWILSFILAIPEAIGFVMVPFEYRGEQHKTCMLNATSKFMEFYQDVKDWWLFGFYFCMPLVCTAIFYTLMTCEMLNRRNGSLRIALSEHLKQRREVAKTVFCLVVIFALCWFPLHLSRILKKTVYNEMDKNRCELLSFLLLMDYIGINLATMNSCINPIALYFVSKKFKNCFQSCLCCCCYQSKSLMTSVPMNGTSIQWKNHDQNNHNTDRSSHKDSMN

Cytochrome P450 1A2 = target: T3, Cytochrome P450 1A2 (Homo sapiens, UniProt P05177); details: bti-tn-5b1-4; also: in other assays of this panel Not Active means under 50% inhibition at 10 µM
T3 sequence (P05177 whole entry): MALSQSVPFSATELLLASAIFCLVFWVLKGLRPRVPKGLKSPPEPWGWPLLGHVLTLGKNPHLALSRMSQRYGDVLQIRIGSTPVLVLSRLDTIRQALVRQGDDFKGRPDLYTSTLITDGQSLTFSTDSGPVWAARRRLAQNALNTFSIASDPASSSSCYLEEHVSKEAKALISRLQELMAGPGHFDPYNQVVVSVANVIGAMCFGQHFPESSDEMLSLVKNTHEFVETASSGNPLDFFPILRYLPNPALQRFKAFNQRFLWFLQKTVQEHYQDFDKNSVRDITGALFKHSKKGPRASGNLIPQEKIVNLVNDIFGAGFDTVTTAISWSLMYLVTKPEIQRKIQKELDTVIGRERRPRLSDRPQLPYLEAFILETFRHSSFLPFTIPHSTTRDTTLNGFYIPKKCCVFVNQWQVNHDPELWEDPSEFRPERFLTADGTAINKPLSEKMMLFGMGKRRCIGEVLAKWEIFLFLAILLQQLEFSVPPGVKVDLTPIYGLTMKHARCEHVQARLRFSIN

[2] = target: Beta-1 adrenergic receptor (Homo sapiens, UniProt P08588); assay: DRUGMATRIX: Adrenergic beta1 radioligand binding (ligand: [125I] Cyanopindolol); type: cell membranes, CHO-K1, Membrane; details: cho-k1; Not Active = under 50% inhibition at 10 µM
Melanocortin receptor 4 = Melanocortin receptor 4 (Homo sapiens, UniProt P32245); type: cell membranes, Membrane; details: hek293; also: in other assays of this panel Not Active means under 50% inhibition at 10 µM
[3] = target: T4, C-X-C chemokine receptor type 1 (Homo sapiens, UniProt P25024); also: in other assays of this panel Not Active means under 50% inhibition at 10 µM
T4 sequence (P25024 whole entry): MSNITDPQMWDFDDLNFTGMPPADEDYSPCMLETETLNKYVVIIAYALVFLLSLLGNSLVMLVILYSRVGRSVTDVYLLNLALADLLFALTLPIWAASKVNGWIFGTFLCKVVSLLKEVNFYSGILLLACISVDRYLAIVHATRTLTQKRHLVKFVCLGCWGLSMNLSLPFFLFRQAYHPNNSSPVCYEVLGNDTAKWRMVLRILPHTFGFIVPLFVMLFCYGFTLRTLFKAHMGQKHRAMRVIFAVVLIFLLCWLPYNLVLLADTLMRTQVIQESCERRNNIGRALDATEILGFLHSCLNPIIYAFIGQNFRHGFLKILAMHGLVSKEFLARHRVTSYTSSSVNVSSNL

Cytochrome P450 2A6 = target: T5, Cytochrome P450 2A6 (Homo sapiens, UniProt P11509); details: bti-tn-5b1-4; also: in other assays of this panel Not Active means under 50% inhibition at 10 µM
T5 sequence (P11509 whole entry): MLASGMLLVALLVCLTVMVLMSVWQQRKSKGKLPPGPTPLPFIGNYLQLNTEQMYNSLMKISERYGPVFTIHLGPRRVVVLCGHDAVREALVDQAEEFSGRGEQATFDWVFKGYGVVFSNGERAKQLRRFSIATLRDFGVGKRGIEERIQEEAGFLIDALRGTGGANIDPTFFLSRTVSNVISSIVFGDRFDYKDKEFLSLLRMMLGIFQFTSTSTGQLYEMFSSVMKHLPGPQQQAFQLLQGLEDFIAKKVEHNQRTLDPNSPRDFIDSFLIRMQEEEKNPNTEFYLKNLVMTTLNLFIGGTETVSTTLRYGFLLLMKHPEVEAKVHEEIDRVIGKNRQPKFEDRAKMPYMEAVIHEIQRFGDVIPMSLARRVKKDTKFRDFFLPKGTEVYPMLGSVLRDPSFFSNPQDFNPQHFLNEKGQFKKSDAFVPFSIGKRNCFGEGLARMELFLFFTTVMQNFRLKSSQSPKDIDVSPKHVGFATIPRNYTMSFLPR

[4] = target: Aldo-keto reductase family 1 member B1 (Rattus norvegicus, UniProt P07943); assay: biochemical; type: tissue-based, Lens of camera-type eye

Sequence of Melanocortin receptor 4 (P32245 whole entry): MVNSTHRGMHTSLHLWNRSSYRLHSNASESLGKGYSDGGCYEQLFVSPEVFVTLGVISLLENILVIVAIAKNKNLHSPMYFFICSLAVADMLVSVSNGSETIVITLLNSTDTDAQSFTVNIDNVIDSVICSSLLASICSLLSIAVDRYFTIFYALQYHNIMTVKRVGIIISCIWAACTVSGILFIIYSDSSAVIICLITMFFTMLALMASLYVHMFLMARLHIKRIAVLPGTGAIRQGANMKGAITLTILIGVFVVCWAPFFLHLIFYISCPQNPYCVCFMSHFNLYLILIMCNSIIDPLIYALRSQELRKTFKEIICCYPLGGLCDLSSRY
Sequence of Beta-1 adrenergic receptor (P08588 whole entry): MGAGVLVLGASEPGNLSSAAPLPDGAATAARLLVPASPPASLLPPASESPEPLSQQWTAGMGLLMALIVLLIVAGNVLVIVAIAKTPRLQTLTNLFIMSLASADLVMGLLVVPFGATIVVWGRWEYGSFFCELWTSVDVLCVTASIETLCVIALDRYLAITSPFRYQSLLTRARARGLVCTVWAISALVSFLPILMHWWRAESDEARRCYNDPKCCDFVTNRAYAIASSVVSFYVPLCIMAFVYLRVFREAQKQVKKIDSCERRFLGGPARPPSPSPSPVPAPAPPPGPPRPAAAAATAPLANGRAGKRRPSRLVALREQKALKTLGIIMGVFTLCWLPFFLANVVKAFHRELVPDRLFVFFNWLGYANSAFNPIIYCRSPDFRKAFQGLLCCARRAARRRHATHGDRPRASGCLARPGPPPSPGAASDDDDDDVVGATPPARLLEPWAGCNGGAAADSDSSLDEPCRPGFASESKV

| Structure (SMILES) | IC50 ([1]; sf9) | IC50 (Endothelin-1 receptor) | IC50 (Cytochrome P450 1A2) | Ki (Cytochrome P450 1A2) | IC50 [2] | IC50 (Melanocortin receptor 4) | IC50 [3] | IC50 (Cytochrome P450 2A6) | Ki (Cytochrome P450 2A6) | IC50 [4] | IC50 ([1]; read-out: IC50) [µM] | Ki [1] [µM] |
| --- | --- | --- | --- | --- | --- | --- | --- | --- | --- | --- | --- | --- |
| COc1ccccc1C(=O)N1CCC(Cc2ccccc2)CC1 | Not Active | Not Active | Not Active | Not Active | Not Active | Not Active | Not Active | Not Active | Not Active | Not Active | – | – |
| Cc1ccccc1C(=O)N1CCC(Cc2ccccc2)CC1 | Not Active | Not Active | Not Active | Not Active | Not Active | Not Active | Not Active | Not Active | Not Active | Not Active | – | – |
| O=C1CC[C@H](N2C(=O)c3ccccc3C2=O)C(=O)N1 | Not Active | Not Active | Not Active | Not Active | Not Active | Not Active | Not Active | Not Active | Not Active | Not Active | – | – |
| N=C(Nc1ccccc1)Nc1ccccc1 | Not Active | Not Active | Not Active | Not Active | Not Active | Not Active | Not Active | Not Active | Not Active | Not Active | – | – |
| C[C@@H](O)[C@H](CO)NC(=O)[C@@H]1CSSC[C@H](NC(=O)[C@H](N)Cc2ccccc2)C(=O)N[C@@H](Cc2ccccc2)C(=O)N[C@H](Cc2c[nH]c3ccccc23)C(=O)N[C@@H](CCCCN)C(=O)N[C@@H]([C@@H](C)O)C(=O)N1 (H-[dF]CF[dW]KTC-{Threoninol(2S,3R)}; disulfide 2-7) | Not Active | Not Active | Not Active | Not Active | Not Active | Not Active | Not Active | Not Active | Not Active | Not Active | – | – |
| S=C=Nc1cccc2ccccc12 [1-NAPHTHYLISOTHIOCYANATE] | – | Not Active | – | – | Not Active | Not Active | Not Active | Not Active | Not Active | Not Active | 54.5 | 7.92 |
| CCCC(=O)Nc1ccc(OCC(O)CNC(C)C)c(C(C)=O)c1 (stereo not given) [ACEBUTOLOL] | Not Active | Not Active | Not Active | Not Active | – | Not Active | Not Active | Not Active | Not Active | Not Active | – | – |
| O=NN(CCCl)C(=O)NCCCl [CARMUSTINE] | Not Active | Not Active | – | – | Not Active | Not Active | Not Active | – | – | Not Active | – | – |
| CC1=C(C(=O)O)N2C(=O)[C@@H](NC(=O)[C@H](N)c3ccccc3)[C@H]2SC1 [CEPHALEXIN ANHYDROUS] | Not Active | Not Active | – | – | Not Active | Not Active | Not Active | Not Active | Not Active | Not Active | – | – |
| O=C(N[C@H](CO)[C@H](O)c1ccc([N+](=O)[O-])cc1)C(Cl)Cl [CHLORAMPHENICOL] | Not Active | Not Active | – | – | Not Active | Not Active | Not Active | – | – | Not Active | – | – |
| CCOC(=O)C(C)(C)Oc1ccc(Cl)cc1 [CLOFIBRATE] | Not Active | Not Active | – | – | Not Active | Not Active | Not Active | Not Active | Not Active | Not Active | – | – |
| C[C@@H]1C[C@@H]([C@H](O)CC2CC(=O)NC(=O)C2)C(=O)[C@@H](C)C1 [CYCLOHEXIMIDE] | Not Active | Not Active | – | – | Not Active | Not Active | Not Active | – | – | Not Active | – | – |
| C/C=C/C[C@@H](C)[C@@H](O)[C@H]1C(=O)N[C@@H](CC)C(=O)N(C)CC(=O)N(C)[C@@H](CC(C)C)C(=O)N[C@@H](C(C)C)C(=O)N(C)[C@@H](CC(C)C)C(=O)N[C@@H](C)C(=O)N[C@H](C)C(=O)N(C)[C@@H](CC(C)C)C(=O)N(C)[C@@H](CC(C)C)C(=O)N(C)[C@@H](C(C)C)C(=O)N1C [CYCLOSPORINE] | Not Active | Not Active | – | – | Not Active | Not Active | Not Active | – | – | Not Active | – | – |
| COc1ccc2c(c1)[C@]13CCCC[C@@H]1[C@H](C2)N(C)CC3 [DEXTROMETHORPHAN] | Not Active | Not Active | – | – | Not Active | Not Active | Not Active | Not Active | Not Active | Not Active | – | – |
| CN(C)c1ccc(C(=C2C=CC(=[N+](C)C)C=C2)c2ccc(N(C)C)cc2)cc1.[Cl-] [GENTIAN VIOLET] | – | Not Active | Not Active | Not Active | – | Not Active | Not Active | Not Active | Not Active | Not Active | 1.88 | 0.274 |
| NC(=O)NO [HYDROXYUREA] | Not Active | Not Active | – | – | Not Active | Not Active | Not Active | – | – | Not Active | – | – |
| CC(=O)Nc1cccc(O)c1 [METACETAMOL] | Not Active | Not Active | – | – | Not Active | Not Active | Not Active | Not Active | Not Active | Not Active | – | – |
| COc1ccc2cc([C@H](C)C(=O)O)ccc2c1 [NAPROXEN] | Not Active | Not Active | – | – | Not Active | Not Active | Not Active | – | – | Not Active | – | – |
| COC(=O)C1=C(C)NC(C)=C(C(=O)OCC(C)C)C1c1ccccc1[N+](=O)[O-] (stereo not given) [NISOLDIPINE] | Not Active | Not Active | – | – | Not Active | Not Active | Not Active | Not Active | Not Active | Not Active | – | – |
| CCn1cc(C(=O)O)c(=O)c2cc(F)c(N3CCN(C)CC3)cc21 [PEFLOXACIN] | Not Active | Not Active | – | – | Not Active | Not Active | Not Active | – | – | Not Active | – | – |
